According to PubChem BioAssay AID743073 (Broad Institute, 2013):
Calls of active or inactive are those of the source. How the calls were made is not given here.

Tested on: M. tuberculosis BioA-TetON overexpression strain, growth inhibition
Experiment: PubChem AID 743073
Settings: for IC90: IC90 growth inhibition

| Structure (SMILES) | IC50 | IC90 [µM] |
| --- | --- | --- |
| Cc1cc(C)n2nc(C(=O)Nc3cccnc3)nc2n1 | > 50 µM (inactive) | > 50 |
| O=C(c1ccc2c(c1)OCO2)N1CCN(c2ccc(Cl)cc2)CC1 | 11.6 µM | 47.2 |
| CC(=O)c1ccc(N2CCN(C(=O)c3ccc(Br)cc3)CC2)c(F)c1 | > 50 µM (inactive) | > 50 |
| O=C(Nc1ccc2snnc2c1)N1CCOCC1 | > 50 µM (inactive) | > 50 |
| O=C(Nc1ccc2snnc2c1)N1CCN(c2ccccc2)CC1 | > 50 µM (inactive) | > 50 |
| CC(=O)c1ccc(N2CCN(C(=O)c3ccc4c(c3)OCCO4)CC2)cc1 | > 50 µM (inactive) | > 50 |
| CC(=O)c1ccc(N2CCN(C(=O)c3ccc(F)cc3)CC2)cc1 | > 50 µM (inactive) | > 50 |
| O=C(Nc1ccccc1)N1CCN(c2ccccc2)CC1 | 9.9 µM | > 50 |
| Cc1cccc(/C=C(\CCC(=O)O)c2nc3ccccc3s2)c1 | 3.1 µM | 9 |
| CCc1ccc(C(=O)N2CCN(Cc3ccc4c(c3)OCO4)CC2)cc1 | 11.2 µM | 47.2 |
| O=C(Nc1cccnc1)N1CCN(c2ccccc2)CC1 | > 50 µM (inactive) | > 50 |
| COc1cc(/C=C/C(=O)Nc2cccnc2)cc(OC)c1OC | > 50 µM (inactive) | > 50 |
| CC(=O)c1ccc(N2CCN(Cc3ccc4c(c3)OCO4)CC2)cc1 | > 50 µM (inactive) | > 50 |
| COc1cccc(NC(=O)N2CCN(c3ccccc3)CC2)c1 | 50 µM | > 50 |
| CC(=O)c1ccc(N2CCN(C(=O)c3ccc(Cl)cc3)CC2)cc1 | > 50 µM (inactive) | > 50 |
| Cc1ccccc1/C=C(\CCC(=O)O)c1nc2ccccc2s1 | 6.5 µM | 43.5 |
| O=C(Nc1cccc(F)c1)N1CCN(c2ccccc2)CC1 | 12.8 µM | > 50 |
| Cc1ccc(/C=C(\CC(=O)O)c2nc3ccccc3s2)cc1[N+](=O)[O-] | 11.7 µM | > 50 |
| CC(=O)c1ccc(N2CCN(C(=O)c3ccc(C)cc3)CC2)cc1 | > 50 µM (inactive) | > 50 |
| O=C(c1ccc2c(c1)OCO2)N1CCN(Cc2ccccc2)CC1 | > 50 µM (inactive) | > 50 |

| Structure (SMILES) | IC50 | IC90 [µM] |
| --- | --- | --- |
| CCc1ccc(N2CCN(C(=O)c3ccc4c(c3)OCO4)CC2)cc1 | 16.1 µM | > 50 |
| COc1ccc(NC(=O)N2CCN(c3ccccc3)CC2)cc1 | > 50 µM (inactive) | > 50 |
| O=C(Nc1ccc(Cl)c(-c2nc3ccccc3[nH]2)c1)c1cccnc1 | 10.3 µM | 39.5 |
| O=C(COc1ccc2ccc(=O)oc2c1)N1CCN(c2ccc(F)cc2)CC1 | > 50 µM (inactive) | > 50 |
| Cc1ccc(/C=C(\CCCC(=O)O)c2nc3ccccc3s2)cc1[N+](=O)[O-] | 5.6 µM | > 50 |
| COC(=O)c1c(C(=O)OC)c(-c2cccc(F)c2)n2c1CS(=O)C2 (stereo not given) | > 50 µM (inactive) | > 50 |
| O=C(Nc1ccncc1)c1cc2nc(C3CC3)cc(C(F)F)n2n1 | > 50 µM (inactive) | > 50 |
| CC(=O)c1ccc(N2CCN(C(=O)c3ccccc3)CC2)cc1 | > 50 µM (inactive) | > 50 |
| Cc1cc(C)n2nc(C(=O)Nc3cccnc3)cc2n1 | > 50 µM (inactive) | > 50 |
| CC(=O)c1ccc(N2CCN(C(=O)c3cccc(F)c3)CC2)cc1 | > 50 µM (inactive) | > 50 |
| O=C(c1ccc2c(c1)OCO2)N1CCN(c2ccccc2)CC1 | 24.4 µM | > 50 |
| Cc1ccc(/C=C(\CCC(=O)O)c2nc3ccccc3s2)cc1[N+](=O)[O-] | 1.5 µM | 4.7 |
| O=C(Nc1ccc(Cl)cc1)c1cc2nc(C3CC3)cc(C(F)(F)F)n2n1 | > 50 µM (inactive) | > 50 |
| O=C(O)CC/C(=C\c1ccccc1[N+](=O)[O-])c1nc2ccccc2s1 | > 50 µM (inactive) | > 50 |
| Cc1ccc(/C=C(\CCC(=O)O)c2nc3ccccc3s2)cc1 | 1.7 µM | 5.8 |
| O=C(Nc1ccc2[nH]ccc2c1)N1CCN(c2ccccc2)CC1 | 7 µM | > 50 |
| O=C(Nc1cccnc1)c1cnn2c(C(F)(F)F)cc(-c3ccccc3)nc12 | > 50 µM (inactive) | > 50 |
| COc1cccc(C(=O)N2CCN(c3ccc(C(C)=O)cc3)CC2)c1 | > 50 µM (inactive) | > 50 |
| COc1ccc(N2CCN(C(=O)c3ccc4c(c3)OCO4)CC2)cc1 | 17.6 µM | > 50 |
| O=C(Nc1ccc2snnc2c1)N1CCCCC1 | 50 µM | > 50 |

| Structure (SMILES) | IC50 | IC90 [µM] |
| --- | --- | --- |
| CC(=O)c1ccc(N2CCN(C(=O)c3cccc(Cl)c3)CC2)cc1 | 44.3 µM (inactive) | > 50 |
| COc1cccc(NC(=O)CCC2CCN(C(=O)c3ccc(C(C)=O)s3)CC2)c1 | > 50 µM (inactive) | > 50 |
| CC(C)(C)c1ccc(C(=O)N2CCN(c3ccc4c(c3)OCO4)CC2)cc1 | 13.1 µM | 36.9 |
| CC(=O)c1ccc(N2CCN(C(=O)c3ccc4ncsc4c3)CC2)cc1 | > 50 µM (inactive) | > 50 |
| O=C(Nc1ccc(F)cc1)N1CCN(c2ccccc2)CC1 | 19.3 µM | > 50 |
| Cc1ccc(-c2cc(C(F)(F)F)n3nc(C(=O)Nc4cccnc4)cc3n2)cc1 | > 50 µM (inactive) | > 50 |
| O=C(c1ccc2c(c1)OCO2)N1CCN(c2ccc(F)cc2)CC1 | 28.3 µM | > 50 |
| O=C(Nc1cccc(Cl)c1)N1CCN(c2ccccc2)CC1 | 25.4 µM | > 50 |
| CC(=O)c1ccc(N2CCN(C(=O)c3cccnc3)CC2)cc1 | > 50 µM (inactive) | > 50 |
| CCN(CC)c1ccc2cc(C(=O)c3cccs3)c(=O)oc2c1 | 6.4 µM | > 50 |
| COc1ccc(-c2cc(C(F)(F)F)n3nc(C(=O)Nc4cccnc4)cc3n2)cc1 | > 50 µM (inactive) | > 50 |
| CC(=O)c1ccc(N2CCN(C(=O)c3ccc4c(c3)OCO4)CC2)cc1 | 52 µM (inactive) | > 50 |
| O=C(Nc1cccnc1)c1cc2nc(-c3cccs3)cc(C(F)(F)F)n2n1 | > 50 µM (inactive) | > 50 |
| Cc1nc2ccc(NC(=O)N3CCN(c4ccccc4)CC3)cc2s1 | 2.8 µM | 23.6 |
| Cc1nc2cc(NC(=O)N3CCN(c4ccccc4)CC3)ccc2o1 | 50 µM | > 50 |
| COc1ccc(C(=O)N2CCN(c3ccc(C(C)=O)cc3)CC2)cc1 | > 50 µM (inactive) | > 50 |
| Cc1ccc(NC(=O)N2CCN(c3ccccc3)CC2)cc1 | 50 µM | > 50 |
| CCOC(=O)N1CCN(C(=O)Nc2ccc3snnc3c2)CC1 | > 50 µM (inactive) | > 50 |
| O=C(Nc1cccnc1)c1cnn2c(C(F)F)cc(C3CC3)nc12 | > 50 µM (inactive) | > 50 |
| O=C(O)CC/C(=C\c1ccc([N+](=O)[O-])cc1)c1nc2ccccc2s1 | 8.3 µM | 34.3 |
